Measurements from patent US12092631B2, “Optical thromboelastography systems and methods” (The General Hospital Corporation, priority 2014, dated 2024).

Columns and labels:
[1] = tested on: platelets in platelet rich plasma; assay: OTEG platelet aggregation/disaggregation in platelet rich plasma specimens; format: cell-based; conditions: FIG. 19A
Experimental: FIG. 15B is a block-scheme representing an embodiment of the processing algorithm according to the invention for calculating the platelet aggregate size from speckle fluctuations in the plasma. Platelet rich plasma specimen is transferred into an OTEG cartridge, customized for platelet function assessment and preloaded with 20 μl Adenosine 5′-diphosphate solution (Sigma-Aldrich) (i.e. 5 μM final concentration of ADP in the […]). The cartridge is inserted in the OTEG device and speckle acquisition begins immediately. During acquisition, ADP triggers conformational changes followed by aggregation, which increase the average scattering particle radius. Since Ca′ ions are absent, coagulation cascade is not initiated and the plasma appears as a primarily viscous liquid with the viscosity of η=3 centipoises (@ 37° C.), particularly at small length scales probed by platelets. Compared to small isolated platelets, large aggregates experience a shorter range of diffusive motion and induce slower speckle fluctuations. To estimate the rate of platelet aggregation, speckle frames are processed and speckle intensity autocorrelation functions are calculated. Since plasma is an optically dilute material, the mean square displacements (MSD) values of platelet aggregates can be extracted from the g2(t) curves, using the DLS formalism, as shown in FIG. 7(B), box 2. Fitting the MSD to a linear model of MSD=6Dt at early times provides the diffusion coefficient, D, of scattering particles. The effective scattering radius is then obtained from the Stokes-Einstein relation as: α=KbT/(6πDη), where Kb is the Boltzman constant and T is the temperature (degrees Kelvin).

[2] = tested on: platelets in human whole blood; assay: OTEG platelet aggregate size in ADP-activated human whole blood; format: cell-based; conditions: FIG. 8B
Experimental: FIGS. 8A, 8B: Preliminary studies to assess platelet aggregation using OTEG methodology. FIG. 8A: Increasing aggregate radius, a, of polystyrene beads (rad=1.5 μm) caused by adding MgCl2 salt is detected by OTEG. Aggregate size was related with salt concentration, confirmed by other reports. FIG. 8B: In human whole blood, OTEG detects a 5-fold and 2.5-fold increase in aggregate size with addition of 10 and 5 μM ADP relative to blood without ADP (control). […] To enable platelet function assessment (PLT channel) via the embodiment of the OTEG device of the present invention, a new strategy was implemented to quantify platelet aggregation in whole blood. […] To estimate the rate and extent of platelet aggregation, speckle frames are processed and MSD values are calculated, as above (FIG. 5; box 3). […] The effective particle radius, a, is then obtained from the Stokes-Einstein relation (SER) (FIG. 5: box 4c), the aggregate growth from the baseline at time t=0 is plotted, and the maximum extent of platelet aggregation (RPLT) is estimated at 10 min to quantify platelet function (FIG. 12B). […] We further verified the capability to detect platelet aggregation in ADP-activated blood and monitored the change of effective aggregate radius. […] Clearly, the effective aggregate radius increase with ADP concentration and can be detected with OTEG with high sensitivity. […]

Compound | platelet aggregation detected by OTEG ([1]; ADP 5 μM plus Clopidogrel 3 μM) | platelet aggregation detected by OTEG ([1]; ADP 5 μM plus Clopidogrel 30 μM) | increase in aggregate size relative to blood without ADP (control) ([2]; 5 μM ADP) | increase in aggregate size relative to blood without ADP (control) ([2]; 10 μM ADP) | platelet aggregation detected by OTEG ([1]; ADP final concentration 5 μM)
COC(=O)[C@H](c1ccccc1Cl)N1CCc2sccc2C1 [Clopidogrel] | rapid initial aggregation, followed by a rapid disaggregation | no aggregation | – | – | –
Nc1ncnc2c1ncn2[C@@H]1O[C@H](COP(=O)(O)OP(=O)(O)O)[C@@H](O)[C@H]1O [ADP, Adenosine 5′-diphosphate] | – | – | 2.5 fold | 5 fold | rapid and complete platelet aggregation
